From PMC8243516, “Inhibition of lysosomal phospholipase A2 predicts drug-induced phospholipidosis” (Journal of Lipid Research, 2021)
Where two headings read alike, the source gives them in different places.

Columns and labels:
[1] = target: T1, recombinant mouse LPLA2 (PLA2G15) (Mus musculus, UniProt Q8VEB4); assay: Transacylase activity of LPLA2 (1-O-acyl-N-acetylsphingosine synthase, cell-free liposome assay); assay type: biochemical
T1 construct: purchased Proteos Inc. (Kalamazoo, MI)
T1 sequence (Q8VEB4 34-412): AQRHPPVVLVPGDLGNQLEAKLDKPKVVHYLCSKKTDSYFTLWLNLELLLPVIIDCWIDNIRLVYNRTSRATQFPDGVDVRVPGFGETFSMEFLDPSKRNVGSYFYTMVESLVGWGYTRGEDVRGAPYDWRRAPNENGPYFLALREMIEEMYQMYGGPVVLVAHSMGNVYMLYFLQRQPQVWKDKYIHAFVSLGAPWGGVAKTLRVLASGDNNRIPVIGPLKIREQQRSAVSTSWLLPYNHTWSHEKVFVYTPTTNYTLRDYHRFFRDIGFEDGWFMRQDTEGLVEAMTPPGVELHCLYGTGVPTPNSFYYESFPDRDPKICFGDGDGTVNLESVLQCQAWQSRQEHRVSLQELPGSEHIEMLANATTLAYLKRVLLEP

[2] = cited from earlier work
LPLA2 = target: T2, LPLA2 (Mus musculus, UniProt Q8VEB4); assay: LPLA2 thermal stability measurement (SYPRO Orange Tm); assay type: binding
T2 construct: purchased Proteos Inc. (Kalamazoo, MI)
T2 sequence (Q8VEB4 34-412): T1 sequence (Q8VEB4 34-412)

[3] = 1-O-acyl N-acetylsphingosine synthase activity, pH 4.5, DOPC/sulfatide liposomes, read-out: LPLA2 IC50
[4] = ref Pubchem and chEMBL databases
[5] = ref Pubchem and chEMBL database
[6] = LPLA2 dependent 1-O-acyl N-acetylsphingosine synthase activity, read-out: LPLA2 IC50

Row | Structure (SMILES) | IC50 [1, 3] | pKa (basic) [2, 4] | (ΔTm)c-(ΔTm)d, difference in melting temperature of LPLA2 alone or in the presence of drug (LPLA2; N=3 ± SD) | other results
1 | CCN(CC)C(C)CN1c2ccccc2Sc2ccccc21 (centres unmarked) [Profenamine, diethyl[1-(10H-phenothiazin-10-yl)propan-2-yl]amine] | 8.7 µM | 9.6 | – | –
2 | Cc1ccccc1C(OCCN(C)C)c1ccccc1 (centres unmarked) [Orphenadrine] | – | – | – | pKa (basic) [2, 5]: 8.87
3 | O=c1ccn([C@@H]2O[C@H](CO)[C@@H](O)[C@H]2O)c(=O)[nH]1 [Uridine] | – | – | – | pKa (basic) [2, 5]: -3
4 | CC(Cc1cccc(C(F)(F)F)c1)NCCOC(=O)c1ccccc1 (centres unmarked) [Benfluorex, N-(1-methyl-2-(3-[trifluoromethyl]-phenyl)ethyl)amino ethanol benzoate ester] | 19.9 µM | 9.14 | – | –
5 | OC[C@H]1OC(O)[C@H](O)[C@@H](O)[C@@H]1O (mixture of isomers) [D-( ± )-glucose] | – | – | 0 °C | –
6 | NCC1(CC(=O)O)CCCCC1 [Gabapentin] | – | – | – | IC50 [1, 6]: 37.4 µM; pKa (basic) [2, 5]: 9.91
7 | CN1[C@@H]2CC[C@H]1C[C@@H](OC(c1ccccc1)c1ccccc1)C2 [Benztropine] | – | – | – | pKa (basic) [2, 5]: 9.54
8 | CCN(CC)CCOc1ccc(C(=C(Cl)c2ccccc2)c2ccccc2)cc1 [Clomifene] | – | – | – | pKa (basic) [2, 5]: 9.31
9 | CCOc1ccc(NC(C)=O)cc1 [Phenacetin, N-(4-ethoxyphenyl) acetamide] | 2140 µM | -4.2 | -2.30 ± 0.6 °C | –
10 | Fc1ccc(C(c2ccc(F)cc2)N2CCN(C/C=C/c3ccccc3)CC2)cc1 [Flunarizine, 1-[bis(4-fluorophenyl)methyl]-4-[(2E)-3-phenylprop-2-en-1-yl]piperazine] | – | 7.6 | – | –
11 | Cc1ccc(C(=O)Nc2ccc(S(=O)(=O)O)c3cc(S(=O)(=O)O)cc(S(=O)(=O)O)c23)cc1NC(=O)c1cccc(NC(=O)Nc2cccc(C(=O)Nc3cc(C(=O)Nc4ccc(S(=O)(=O)O)c5cc(S(=O)(=O)O)cc(S(=O)(=O)O)c45)ccc3C)c2)c1 [Suramin, 8-{4-methyl-3-[3-({[3-({2-methyl-5-[(4,6,8-trisulfonaphthalen-1yl)carbamoyl]phenyl}carbamoyl)phenyl]carbamoyl}amino)benzamido]benzamido}naphthalene-1,3,5-trisulfonic acid] | 35.5 µM | – | 0 °C | –
12 | O=C1C(O)=C([C@H]2CC[C@H](c3ccc(Cl)cc3)CC2)C(=O)c2ccccc21 [atovaquone] | – | – | -0.17 ± 0.1 °C | –
13 | CC(C)OC(=O)C(C)(C)Oc1ccc(C(=O)c2ccc(Cl)cc2)cc1 [Fenofibrate, 2-[4-(4-chlorobenzoyl)phenoxy]-2-methylpropanoic acid isopropyl ester] | 2.25 µM | -4.9 | 0.44 ± 0.7 °C | –
14 | CCN(CC)CCc1nc(-c2ccccc2)no1 [oxolamine] | – | – | -0.89 ± 0.0 °C | –
15 | CN1CCN2c3ncccc3Cc3ccccc3C2C1 (centres unmarked) [Mirtazapine, 5-methyl-2,5,19-triazatetracyclo [13.4.0.0^2,^7.0^8,^1³] nonadeca-1(15),8,10,12,16,18-hexaene] | 8.7 µM | 6.67 | -1.30 ± 0.7 °C | –
16 | CC(C)(C#N)c1cc(Cn2cncn2)cc(C(C)(C)C#N)c1 [Anastrozole, 2;2″-[5-(1H-1;2;4-Triazol-1-ylmethyl)-1,3-phenylene]bis(2-methyl-propiononitrile)] | 4.82 µM | 2 | -1.05 ± 0.1 °C | –
17 | CN1[C@@H]2CC[C@H]1C[C@@H](OC(=O)C(CO)c1ccccc1)C2 (some centres unmarked) [Atropine] | – | – | – | IC50 ([1]; LPLA2 IC50): 1870 µM
18 | O=C(O)Cc1ccccc1Nc1c(Cl)cccc1Cl [Diclofenac] | – | – | 1.70 ± 0.5 °C | IC50 [1, 6]: 7.2 µM
19 | CC[C@H]1OC(=O)[C@H](C)[C@@H](O[C@H]2C[C@@](C)(OC)[C@@H](O)[C@H](C)O2)[C@H](C)[C@@H](O[C@@H]2O[C@H](C)C[C@H](N(C)C)[C@H]2O)[C@](C)(O)C[C@@H](C)C(=O)[C@H](C)[C@@H](O)[C@]1(C)O [Erythromycin, (3R,4S,5S,6R,7R,9R,11R,12R,13S,14R)-6-{[(2S,3R,4S,6R)-4-(dimethylamino)-3-hydroxy-6-methyloxan-2-yl]oxy}-14-ethyl-7,12,13-trihydroxy-4-{[(2R,4R,5S,6S)-5-hydroxy-4-methoxy-4,6-dimethyloxan-2-yl]oxy}-3,5,7,9,11,13-hexamethyl-1-oxacyclotetradecane-2,10-dione] | 117 µM | 8.38 | -0.48 ± 0.4 °C | –
20 | CSC(=N)N [S-methylisothiourea] | – | – | -2.05 ± 0.6 °C | –

Row | Structure (SMILES) | IC50 [1, 3] | pKa (basic) [2, 4] | (ΔTm)c-(ΔTm)d, difference in melting temperature of LPLA2 alone or in the presence of drug (LPLA2; N=3 ± SD) | other results
21 | OCCN1CCN(CCCN2c3ccccc3Sc3ccc(Cl)cc32)CC1 [Perphenazine] | – | 8.21 | – | IC50 ([1]; LPLA2 IC50, 1-O-acyl N-acetylsphingosine synthase activity, pH 4.5, DOPC/sulfatide liposomes): 3.92 µM; (ΔTm)c-(ΔTm)d, difference in melting temperature of LPLA2 alone or in the presence of drug (LPLA2): -0.41 ± 0.2 °C
22 | CSc1ccc2c(c1)N(CCC1CCCCN1C)c1ccccc1S2 (centres unmarked) [Thioridazine, 10-[2-(1-methylpiperidin-2-yl)ethyl]-2-(methylsulfanyl) -10H-phenothiazine] | – | 8.93 | – | –
23 | CC(C)(C)c1ccc(CN2CCN(C(c3ccccc3)c3ccc(Cl)cc3)CC2)cc1 (centres unmarked) [Buclizine, 1-((4-chlorophenyl)phenylmethyl)-4-((4-(1,1-dimethylethyl)phenyl)methyl)piperazine] | 9.13 µM | 8.04 | 0.63 ± 0.1 °C | –
24 | O=c1ccn([C@@H]2O[C@H](CO)[C@@H](O)[C@H]2O)c(=O)[nH]1 [uridine] | – | – | -1.71 ± 0.1 °C | –
25 | C[C@]12CCC(=O)C=C1CC[C@@H]1[C@@H]2[C@@H](O)C[C@@]2(C)[C@H]1CC[C@]2(O)C(=O)CO [Hydrocortisone] | – | – | 1.11 ± 0.1 °C | IC50 [1, 6]: 402 µM; pKa (basic) [2, 5]: -2.8
26 | CCCNCC(O)COc1ccccc1C(=O)CCc1ccccc1 (centres unmarked) [Propafenone, 1-{2-[2-hydroxy-3-(propylamino)propoxy]phenyl}-3-phenylpropan-1-one] | 48.2 µM | – | – | –
27 | CN(C)C(=O)C(CCN1CCC(O)(c2ccc(Cl)cc2)CC1)(c1ccccc1)c1ccccc1 [Loperamide, 4-[4-(4-chlorophenyl)-4-hydroxypiperidin-1-yl]-N,N-dimethyl-2,2-diphenylbutanamide] | – | 9.41 | – | –
28 | CC(C)C[C@H](N)C(=O)O [l-leucine] | – | – | 1.86 ± 0.6 °C | –
29 | CC[C@]1(O)C[C@@H]2CN(CCc3c([nH]c4ccccc34)[C@@](C(=O)OC)(c3cc4c(cc3OC)N(C)[C@H]3[C@@](O)(C(=O)OC)[C@H](OC(C)=O)[C@]5(CC)C=CCN6CC[C@]43[C@@H]65)C2)C1 [Vinblastine, methyl (1R,9R,10S,11R,12R,19R)-11-(acetyloxy)-12-ethyl-4-[(13S,15R,17S)-17-ethyl-17-hydroxy-13-(methoxycarbonyl)-1,11-diazatetracyclo [13.3.1.0ˆ[1].0ˆ[1]]nonadeca-4(12),5(10),6,8-tetraen-13-yl]-10-hydroxy-5-methoxy-8-methyl-8,16-diazapentacyclo [10.6.1.0ˆ[1].0ˆ[1] .0ˆ[3]] nonadeca-2,4,6,13-tetraene-10-carboxylate] | 2120 µM | – | -0.24 ± 0.0 °C | LPLA2 inhibition (in words) ([1]; acyl transferase activity): millimolar concentrations
30 | C(=Cc1ccccc1)CN1CCN(C(c2ccccc2)c2ccccc2)CC1 [Cinnarizine, 1-(diphenylmethyl)-4-(3-phenylprop-2-en-1-yl) piperazine] | – | 8.44 | – | –
31 | Nc1c(Br)cc(Br)cc1CN[C@H]1CC[C@H](O)CC1 [Ambroxol, 2-amino-3,5-dibromo-N-(trans-4-hydroxycyclohexyl) benzylamine] | 59 µM | 9.01 | 0.68 ± 0.5 °C | –
32 | NCCc1cc(O)c(O)cc1O [6-Hydroxy-dopamine] | – | – | – | IC50 [1, 6]: 88 µM; pKa (basic) [2, 5]: 9.85
33 | Cl.NCCc1ccc(O)c(O)c1 [3-Hydroxy-tyramine hydrochloride] | – | – | – | IC50 [1, 6]: 56.1 µM; pKa (basic) [2, 5]: 9.27
34 | CC(C)COCC(CN(Cc1ccccc1)c1ccccc1)N1CCCC1 (centres unmarked) [bepridil] | – | – | 2.10 ± 0.6 °C | –
35 | CN1CCN(CCCN2c3ccccc3Sc3ccc(Cl)cc32)CC1 [Prochlorperazine] | – | – | – | pKa (basic) [2, 5]: 8.39
36 | COc1ccc2c(c1)[nH]c1c(C)nccc12 [Harmine] | – | – | -1.94 ± 0.9 °C | IC50 ([1]; LPLA2 IC50, LPLA2 dependent 1-O-acyl N-acetylsphingosine synthase activity): 633 µM
37 | CC(C)N(CCC(C(N)=O)(c1ccccc1)c1ccccn1)C(C)C (centres unmarked) [Disopyramide] | – | – | – | (ΔTm)c-(ΔTm)d, difference in melting temperature of LPLA2 alone or in the presence of drug (LPLA2): 0 °C
38 | CN1CCc2c(c3ccccc3n2Cc2ccccc2)C1 [mebhydroline] | – | – | 0.84 ± 0.1 °C | –
39 | OC(CCN1CCCC1)(c1ccccc1)C1CCCCC1 (centres unmarked) [Procyclidine] | – | – | 0.51 ± 0.0 °C | pKa (basic) [2, 5]: 13.84
